Consider 1 compound from patent publication US7528284B2, “Method for producing xylylenediamine (XDA)” (BASF Aktiengesellschaft, priority 2003, dated 2009).

This data set is described as follows: Investigations of solubility of IPN in different solvents. The data set is classed as physicochemical. How it is done: Investigations of Solubility of IPN in Different Solvents
At 60° C., the solubility of IPN in mesitylene or pseudocumene is in each case below 10% by weight.

For `N#Cc1cccc(C#N)c1` [IPN, 1,3-dicyanobenzene], where the note is “at 60° C.”, the “solubility of IPN in NMP” value was “approx. 26 % by weight”, the “solubility of IPN in mesitylene” value was “below 10 % by weight” and the “solubility of IPN in pseudocumene” value is “below 10 % by weight”. In addition, for the setting “at 90° C.”, the “solubility of IPN in NMP” value was “approx. 41 % by weight”, the “solubility of IPN in mesitylene” value came out at 12 % by weight and the “solubility of IPN in pseudocumene” value is 20 % by weight.
